In ChEMBL document CHEMBL5113489, “Design, synthesis, and biological evaluation of membrane-active honokiol derivatives as potent antibacterial agents” (Eur J Med Chem, 2022):
In brackets after ≈: the same amount, converted by molar mass.

Experiments:
Staphylococcus aureus [1] = assay: Antibacterial activity against Staphylococcus aureus ATCC 43300 assessed as resistance development by measuring fold increase in MIC; assay type: functional
Staphylococcus aureus [2] = assay: Antibacterial activity against Staphylococcus aureus ATCC 31007; assay type: functional
[3] = Selectivity index, ratio of HC50 for hemolytic activity in sheep RBC to MIC for antibacterial activity against Staphylococcus aureus ATCC 43300; assay type: toxicity; conditions: sheep red blood cells (erythrocytes)
Staphylococcus aureus [4] = assay: Antibacterial activity against Staphylococcus aureus ATCC 25923; assay type: functional
Pseudomonas aeruginosa = assay: Antibacterial activity against Pseudomonas aeruginosa ATCC 27853; assay type: functional
Staphylococcus aureus [5] = assay: Antibacterial activity against Staphylococcus aureus ATCC 43300; assay type: functional
[6] = Hemolytic activity in sheep RBC; assay type: toxicity, cell-based, Ovis aries, Erythrocyte; conditions: sheep red blood cells (erythrocytes)
Bacillus subtilis = assay: Antibacterial activity against Bacillus subtilis ATCC 9372; assay type: functional
Escherichia coli [7] = assay: Antibacterial activity against Escherichia coli ATCC 25922; assay type: functional
Staphylococcus aureus [8] = assay: In vivo antibacterial activity against Staphylococcus aureus ATCC 43300 in septicemia mouse model assessed as log reduction in bacterial load in kidney at 5 mg/kg, administered every 12 hrs for 3 days; assay type: functional
Staphylococcus aureus [9] = assay: In vivo antibacterial activity against Staphylococcus aureus ATCC 43300 in septicemia mouse model assessed as log reduction in bacterial load in spleen at 5 mg/kg, administered every 12 hrs for 3 days; assay type: functional
Staphylococcus aureus [10] = assay: In vivo antibacterial activity against Staphylococcus aureus ATCC 43300 in septicemia mouse model assessed as log reduction in bacterial load in liver at 5 mg/kg, administered every 12 hrs for 3 days; assay type: functional
Escherichia coli [11] = assay: Antibacterial activity against Escherichia coli ATCC 25922 assessed as resistance development by measuring fold increase in MIC; assay type: functional

Compound	MIC (Staphylococcus aureus [2]) [µg/mL]	MIC (Staphylococcus aureus [4]) [µg/mL]	MIC (Pseudomonas aeruginosa) [µg/mL]	MIC (Staphylococcus aureus [5]) [µg/mL]	MIC (Bacillus subtilis) [µg/mL]	MIC (Escherichia coli [7]) [µg/mL]	fold change (FC) (Staphylococcus aureus [1])	selectivity ratio [3]	HC50 [6] [µg/mL]	log(activity) (Staphylococcus aureus [8])	log(activity) (Staphylococcus aureus [9])	log(activity) (Staphylococcus aureus [10])	fold change (FC) (Escherichia coli [11])
CCn1cc(C(=O)O)c(=O)c2cc(F)c(N3CCNCC3)cc21 [NORFLOXACIN]	–	–	–	–	–	–	256	–	–	–	–	–	–
C=CCc1ccc(OCCN)c(-c2ccc(OCCN)c(CC=C)c2)c1.Cl.Cl	16	8	64	8	32	16	–	86.7	694	–	–	–	–
C=CCc1ccc(OCC(=O)NCCC[N+](C)(C)CCCCCCCC)c(-c2ccc(OCC(=O)NCCC[N+](C)(C)CCCCCCCC)c(CC=C)c2)c1.[Br-].[Br-]	4	2	16	2	4	8	–	61.5	123	–	–	–	–
C=CCc1ccc(OCCC[N+](C)(C)CCCCCCCCCC)c(-c2ccc(OCCC[N+](C)(C)CCCCCCCCCC)c(CC=C)c2)c1.[Br-].[Br-]	32	16	> 128	4	2	> 128	–	–	–	–	–	–	–
C=CCc1ccc(OCCC[N+](C)(C)CCCCCCCCCCCC)c(-c2ccc(OCCC[N+](C)(C)CCCCCCCCCCCC)c(CC=C)c2)c1.[Br-].[Br-]	128	128	> 128	> 128	> 128	> 128	–	–	–	–	–	–	–
C=CCc1ccc(OCCCN)c(-c2ccc(OCCCN)c(CC=C)c2)c1.Cl.Cl	8	4	64	4	32	> 128	–	110	438	–	–	–	–
C=CCc1ccc(OCCC[N+](C)(C)CCCCCCCCCCCCCC)c(-c2ccc(OCCC[N+](C)(C)CCCCCCCCCCCCCC)c(CC=C)c2)c1.[Br-].[Br-]	128	16	> 128	> 128	> 128	> 128	–	–	–	–	–	–	–
C=CCc1ccc(OCCC[N+](C)(C)CCCCCCCC)c(-c2ccc(OCCC[N+](C)(C)CCCCCCCC)c(CC=C)c2)c1.[Br-].[Br-]	2	2	16	2	1	8	–	18	36	–	–	–	–
C=CCc1ccc(OCC(=O)NCCC[N+](C)(C)CCCCCCCCCC)c(-c2ccc(OCC(=O)NCCC[N+](C)(C)CCCCCCCCCC)c(CC=C)c2)c1.[Br-].[Br-]	4	2	128	4	8	32	–	13.2	53	–	–	–	–
O=C(O)c1cn(C2CC2)c2cc(N3CCNCC3)c(F)cc2c1=O [CIPROFLOXACIN]	–	–	–	–	–	–	–	–	–	1.56	1.52	2.01	–
C=CCc1ccc(OCC(=O)NCCC[N+](C)(C)CCCCCC)c(-c2ccc(OCC(=O)NCCC[N+](C)(C)CCCCCC)c(CC=C)c2)c1.[Br-].[Br-]	16	8	128	16	16	16	–	11.4	183	–	–	–	–
C=CCc1ccc(OCC(=O)NCCC[N+](C)(C)CCCCCCCCCCCC)c(-c2ccc(OCC(=O)NCCC[N+](C)(C)CCCCCCCCCCCC)c(CC=C)c2)c1.[Br-].[Br-]	8	8	128	4	32	32	–	–	–	–	–	–	–
C=CCc1ccc(OCC(=O)NCCC[N+](C)(C)C)c(-c2ccc(OCC(=O)NCCC[N+](C)(C)C)c(CC=C)c2)c1.[I-].[I-]	128	64	> 128	> 128	> 128	16	–	–	–	–	–	–	–
COLISTIN	128	64	1	64	8	2	–	–	–	–	–	–	64
C=CCc1ccc(OCCC[N+](C)(C)CCCC)c(-c2ccc(OCCC[N+](C)(C)CCCC)c(CC=C)c2)c1.[Br-].[Br-]	8	4	128	4	4	16	–	295	1180	–	–	–	–
C=CCc1ccc(O)c(-c2ccc(O)c(CC=C)c2)c1 [HONOKIOL]	64 (≈ 240 µM)	64 (≈ 240 µM)	> 128	128 (≈ 481 µM)	32 (≈ 120 µM)	> 128	–	–	–	–	–	–	–
CN[C@H](CC(C)C)C(=O)N[C@H]1C(=O)N[C@@H](CC(N)=O)C(=O)N[C@H]2C(=O)N[C@H]3C(=O)N[C@H](C(=O)N[C@H](C(=O)O)c4cc(O)cc(O)c4-c4cc3ccc4O)[C@H](O)c3ccc(c(Cl)c3)Oc3cc2cc(c3O[C@@H]2O[C@H](CO)[C@@H](O)[C@H](O)[C@H]2O[C@H]2C[C@](C)(N)[C@H](O)[C@H](C)O2)Oc2ccc(cc2Cl)[C@H]1O [VANCOMYCIN]	–	–	> 128	–	0.5 (≈ 0.345 µM)	> 128	–	–	–	–	–	–	–

The next lines start with results.

MIC (Staphylococcus aureus [2]) [µg/mL]	MIC (Staphylococcus aureus [4]) [µg/mL]	MIC (Pseudomonas aeruginosa) [µg/mL]	MIC (Staphylococcus aureus [5]) [µg/mL]	MIC (Bacillus subtilis) [µg/mL]	MIC (Escherichia coli [7]) [µg/mL]	Compound	fold change (FC) (Staphylococcus aureus [1])	selectivity ratio [3]	HC50 [6] [µg/mL]	log(activity) (Staphylococcus aureus [8])	log(activity) (Staphylococcus aureus [9])	log(activity) (Staphylococcus aureus [10])	fold change (FC) (Escherichia coli [11])
16	16	128	8	8	64	C=CCc1ccc(OCC(=O)NC(CCCCN)C(=O)NCCCCCCCC)c(-c2ccc(OCC(=O)NC(CCCCN)C(=O)NCCCCCCCC)c(CC=C)c2)c1.O=C(O)C(F)(F)F.O=C(O)C(F)(F)F (stereo not given)	–	–	–	–	–	–	–
32	16	32	16	8	32	C=CCc1ccc(OCC(=O)NC(CCCCN)C(=O)NCCCC)c(-c2ccc(OCC(=O)NC(CCCCN)C(=O)NCCCC)c(CC=C)c2)c1.O=C(O)C(F)(F)F.O=C(O)C(F)(F)F (stereo not given)	–	–	–	–	–	–	–
4	8	> 128	4	4	> 128	C=CCc1ccc(OCC(=O)NC(CCCCN)C(=O)NCC23CC4CC(CC(C4)C2)C3)c(-c2ccc(OCC(=O)NC(CCCCN)C(=O)NCC34CC5CC(CC(C5)C3)C4)c(CC=C)c2)c1.O=C(O)C(F)(F)F.O=C(O)C(F)(F)F (stereo not given)	–	> 320	1280	–	–	–	–
64	32	64	32	128	128	C=CCc1ccc(OCC(=O)NCCCCN)c(-c2ccc(OCC(=O)NCCCCN)c(CC=C)c2)c1.O=C(O)C(F)(F)F.O=C(O)C(F)(F)F	–	–	–	–	–	–	–
16	8	> 128	4	4	128	C=CCc1ccc(OCC(=O)NC(CCCCN)C(=O)NCc2ccc(C(C)(C)C)cc2)c(-c2ccc(OCC(=O)NC(CCCCN)C(=O)NCc3ccc(C(C)(C)C)cc3)c(CC=C)c2)c1.O=C(O)C(F)(F)F.O=C(O)C(F)(F)F (stereo not given)	–	–	–	–	–	–	–
32	32	128	32	128	64	C=CCc1ccc(OCC(=O)NCCN)c(-c2ccc(OCC(=O)NCCN)c(CC=C)c2)c1.O=C(O)C(F)(F)F.O=C(O)C(F)(F)F	–	–	–	–	–	–	–
64	32	64	64	> 128	128	C=CCc1ccc(OCC(=O)NCCCN)c(-c2ccc(OCC(=O)NCCCN)c(CC=C)c2)c1.O=C(O)C(F)(F)F.O=C(O)C(F)(F)F	–	–	–	–	–	–	–
8	8	16	8	8	16	C=CCc1ccc(OCC(=O)NC(CCCCN)C(=O)NCCCCCC)c(-c2ccc(OCC(=O)NC(CCCCN)C(=O)NCCCCCC)c(CC=C)c2)c1.O=C(O)C(F)(F)F.O=C(O)C(F)(F)F (stereo not given)	–	62.7	502	–	–	–	–
128 (≈ 232 µM)	128 (≈ 232 µM)	> 128	> 128	> 128	> 128	C=CCc1ccc(OCC(=O)NCCCN(C)C)c(-c2ccc(OCC(=O)NCCCN(C)C)c(CC=C)c2)c1	–	–	–	–	–	–	–
128	64	> 128	128	> 128	128	C=CCc1ccc(OCC(=O)NCCC[N+](C)(C)CCCC)c(-c2ccc(OCC(=O)NCCC[N+](C)(C)CCCC)c(CC=C)c2)c1.[Br-].[Br-]	–	–	–	–	–	–	–
64	128	> 128	64	> 128	> 128	C=CCc1ccc(OCC(=O)NC(CCCCN)C(=O)NCCCCCCCCCCCC)c(-c2ccc(OCC(=O)NC(CCCCN)C(=O)NCCCCCCCCCCCC)c(CC=C)c2)c1.O=C(O)C(F)(F)F.O=C(O)C(F)(F)F (stereo not given)	–	–	–	–	–	–	–
32	32	> 128	16	8	> 128	C=CCc1ccc(OCC(=O)NC(CCCCN)C(=O)NCc2ccc(-c3ccccc3)cc2)c(-c2ccc(OCC(=O)NC(CCCCN)C(=O)NCc3ccc(-c4ccccc4)cc3)c(CC=C)c2)c1.O=C(O)C(F)(F)F.O=C(O)C(F)(F)F (stereo not given)	–	–	–	–	–	–	–
8	4	16	4	4	16	C=CCc1ccc(OCC(=O)NC(CCCCN)C(=O)NCCCCCCCCCC)c(-c2ccc(OCC(=O)NC(CCCCN)C(=O)NCCCCCCCCCC)c(CC=C)c2)c1.O=C(O)C(F)(F)F.O=C(O)C(F)(F)F (stereo not given)	–	> 320	> 1280	–	–	–	–
